pKd: −log10 of the molar value. Read-outs that look alike come from different tables or passages of the source. Blank lines part the entries; values can stand above or below the compound they belong to.
Columns and labels:
Assay type in all cases: binding
[1] = target: T1, EIF2C2/Ago2 PAZ domain (Ago2PAZ) (Homo sapiens, UniProt Q9UKV8); assay: ITC displacement (UMP titrated into AMP-saturated protein); details: 25 mM potassium phosphate pH 7; 12°C; competition with UMP; unreliable (estimated, direct titration ND)
T1 construct: PAZ domain, residues 226-379, hexahistidine tag (pQE30, BamHI/HindIII), tag removal not mentioned; expressed in E. coli; Talon and Sephacryl S200HR
T1 sequence (Q9UKV8 227-379): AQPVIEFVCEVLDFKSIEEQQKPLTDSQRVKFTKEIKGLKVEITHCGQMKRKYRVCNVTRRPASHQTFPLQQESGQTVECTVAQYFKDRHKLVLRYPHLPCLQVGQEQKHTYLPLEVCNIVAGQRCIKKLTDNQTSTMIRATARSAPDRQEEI
Description: ITC displacement (UMP titrated into AMP-saturated protein) on EIF2C2/Ago2 PAZ domain (Ago2PAZ)

[2] = target: T1, EIF2C2/Ago2 PAZ domain (Ago2PAZ); assay: isothermal titration calorimetry; details: for pKd: read-out: Kd /
[3] = target: T1, EIF2C2/Ago2 PAZ domain (Ago2PAZ); assay: ITC displacement (UMP titrated into dAMP-saturated protein); details: 25 mM potassium phosphate pH 7; 12°C; competition with UMP; unreliable (estimated, direct titration ND)
Description: ITC displacement (UMP titrated into dAMP-saturated protein) on EIF2C2/Ago2 PAZ domain (Ago2PAZ)

[4] = target: T1, EIF2C2/Ago2 PAZ domain (Ago2PAZ); assay: ITC displacement (UMP titrated into dCMP-saturated protein); details: 25 mM potassium phosphate pH 7; 12°C; competition with UMP; unreliable (estimated, direct titration ND)
Description: ITC displacement (UMP titrated into dCMP-saturated protein) on EIF2C2/Ago2 PAZ domain (Ago2PAZ)

Compound: Nc1ncnc2c1ncn2[C@@H]1O[C@H](COP(=O)(O)O)[C@@H](O)[C@H]1O [AMP]
Estimated KB / M^-1 [1]: 143 M⁻¹

Compound: Nc1ccn([C@@H]2O[C@H](COP(=O)(O)O)[C@@H](O)[C@H]2O)c(=O)n1 [CMP]
pKd [2]: 4.40

Compound: Nc1nc2c(ncn2[C@@H]2O[C@H](COP(=O)(O)O)[C@@H](O)[C@H]2O)c(=O)[nH]1 [GMP]
pKd [2]: 4.66

Compound: Cc1cn([C@H]2C[C@H](O)[C@@H](COP(=O)(O)O)O2)c(=O)[nH]c1=O [TMP]
pKd [2]: 3.63

Compound: O=c1ccn([C@@H]2O[C@H](COP(=O)(O)O)[C@@H](O)[C@H]2O)c(=O)[nH]1 [UMP]
pKd ([2]; 25 mM potassium phosphate pH 7, one-set-of-sites model, fitted n 2.2): 4.82

Compound: Cc1cn([C@@H]2O[C@H](COP(=O)(O)O)[C@@H](O)[C@H]2O)c(=O)[nH]c1=O [compound 2, 5-Methyluridine-5′-O-monophosphate]
Kd ([2]; read-out: Ka (converted)): 58.8 µM

Other lines, results leading:

Estimated KB / M^-1 [3]: 72 M⁻¹
Compound: Nc1ncnc2c1ncn2[C@H]1C[C@H](O)[C@@H](COP(=O)(O)O)O1 [dAMP]

Estimated KB / M^-1 [4]: 155 M⁻¹
Compound: Nc1ccn([C@H]2C[C@H](O)[C@@H](COP(=O)(O)O)O2)c(=O)n1 [dCMP]

pKd [2]: 4.40
Compound: Nc1nc2c(ncn2[C@H]2C[C@H](O)[C@@H](COP(=O)(O)O)O2)c(=O)[nH]1 [dGMP]

From paper PMC4008379, “Bioenergetics and Gene Silencing Approaches for Unraveling Nucleotide Recognition by the Human EIF2C2/Ago2 PAZ Domain” (PLoS ONE, 2014)
